# From paper PMC2873968, “Novel protein kinase D inhibitors cause potent arrest in prostate cancer cell growth and motility” (BMC Chemical Biology, 2010)
# Key:
# PC3 cells = test system: PC3 cells; design: method as in PMID 18829454; conditions: 10 or 25 μM for six days; cited from earlier work
# Erk1 = Erk1 (Homo sapiens, UniProt P27361); experiment: Kinase profiling, single-dose in vitro kinase assay (Caliper Life Sciences); conditions: read-out: Average % Inhibition Erk1, 10 μM
# PKCδ = target: T1, PKCδ (Homo sapiens, UniProt Q05655); design: method as in PMID 18829454; conditions: previously reported; cited from earlier work
# T1 construct: purchased Enzo Life Sciences
# T1 sequence (Q05655 whole entry): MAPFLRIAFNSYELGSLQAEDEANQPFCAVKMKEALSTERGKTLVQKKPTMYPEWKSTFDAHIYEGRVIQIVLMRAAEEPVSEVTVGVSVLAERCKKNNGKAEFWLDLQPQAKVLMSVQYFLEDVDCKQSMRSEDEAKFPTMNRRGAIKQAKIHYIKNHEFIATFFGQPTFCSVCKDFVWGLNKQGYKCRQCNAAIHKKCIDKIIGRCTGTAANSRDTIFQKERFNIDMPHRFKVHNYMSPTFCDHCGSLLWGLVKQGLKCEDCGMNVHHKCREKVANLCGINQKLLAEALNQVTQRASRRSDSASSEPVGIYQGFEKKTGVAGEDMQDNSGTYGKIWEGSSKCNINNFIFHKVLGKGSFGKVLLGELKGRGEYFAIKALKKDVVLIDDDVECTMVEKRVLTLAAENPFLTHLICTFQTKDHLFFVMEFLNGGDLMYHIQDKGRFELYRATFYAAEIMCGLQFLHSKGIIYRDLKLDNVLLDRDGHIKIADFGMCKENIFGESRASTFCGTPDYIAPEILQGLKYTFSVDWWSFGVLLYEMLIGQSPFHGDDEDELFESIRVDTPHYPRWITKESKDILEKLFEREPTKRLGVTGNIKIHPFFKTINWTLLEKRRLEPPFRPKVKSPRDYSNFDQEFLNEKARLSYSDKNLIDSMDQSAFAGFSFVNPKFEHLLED
# Chain of Erk1 (P27361 whole entry): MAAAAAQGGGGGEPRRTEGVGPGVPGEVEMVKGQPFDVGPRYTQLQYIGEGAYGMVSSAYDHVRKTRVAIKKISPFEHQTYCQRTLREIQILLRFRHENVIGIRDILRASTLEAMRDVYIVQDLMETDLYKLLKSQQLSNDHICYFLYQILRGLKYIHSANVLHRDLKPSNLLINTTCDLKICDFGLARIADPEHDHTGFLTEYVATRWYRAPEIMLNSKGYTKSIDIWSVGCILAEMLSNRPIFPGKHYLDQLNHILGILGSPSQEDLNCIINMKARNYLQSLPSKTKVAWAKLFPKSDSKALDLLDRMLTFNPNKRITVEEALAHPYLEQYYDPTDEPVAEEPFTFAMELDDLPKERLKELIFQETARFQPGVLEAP
structure (smiles),measurement,setting,value
"O=C1NCCCc2c1oc1ccc(O)cc21 [CID755673, 7-Hydroxy-2,3,4,5-tetrahydro-[1]benzoxolo[2,3-c]azepin-1-one]",cell cycle arrest,PC3 cells,caused G2/M phase cell cycle arrest
same,inhibition at 10 µM,Erk1,≥ 50%
same,inhibition of PKCδ,PKCδ,did not inhibit
